From ChEMBL document CHEMBL4651402, “Screening of ~5500 FDA-approved drugs and clinical candidates for anti-SARS-CoV-2 activity” (2021)

Tested on: SARS-CoV-2
Test: microbe, parasite or virus in culture
Conditions: Severe acute respiratory syndrome coronavirus 2, Vero C1008, 48 h

Row | Compound | IC50 [µM] | IC50 (read-out: pIC50 (converted)) [µM]
1 | COCCCC/C(=N\OCCN)c1ccc(C(F)(F)F)cc1 [FLUVOXAMINE] | > 20 | > 20
2 | CNC(=O)N1CC(Oc2cccc(C(F)(F)F)c2)C1 [FLUZINAMIDE] | > 20 | > 20
3 | Nc1nc(=O)c2nc(CNc3ccc(C(=O)N[C@@H](CCC(=O)O)C(=O)O)cc3)cnc2[nH]1 [FOLIC ACID] | > 20 | > 20
4 | Cc1cn[nH]c1 [FOMEPIZOLE] | > 20 | > 20
5 | CN(CC(=O)N1CCOCC1)Cc1c(Cl)cccc1NC(=O)c1ccccc1 [FOMINOBEN] | > 20 | > 20
6 | c1ccc(OCc2ccc(CCCN3CCOCC3)cc2)cc1 [FOMOCAINE] | > 20 | > 20
7 | CC(CN1c2ccccc2Sc2ccc(S(=O)(=O)N(C)C)cc21)N(C)C (configuration not stated) [FONAZINE] | > 20 | > 20
8 | COc1cc2c(Oc3ccc(NC(=O)C4(C(=O)Nc5ccc(F)cc5)CC4)cc3F)ccnc2cc1OCCCN1CCOCC1 [FORETINIB] | > 20 | > 20
9 | C[C@]12CCC(=O)C(O)=C1CC[C@@H]1[C@@H]2CC[C@]2(C)C(=O)CC[C@@H]12 [FORMESTANE] | > 20 | > 20
10 | COc1ccc(-c2coc3cc(O)ccc3c2=O)cc1 [FORMONONETIN] | > 20 | > 20
11 | O=c1[nH]cnc2c([C@@H]3N[C@H](CO)[C@@H](O)[C@H]3O)c[nH]c12 [FORODESINE] | > 20 | > 20
12 | CC(C)CN(C[C@@H](OP(=O)(O)O)[C@H](Cc1ccccc1)NC(=O)O[C@H]1CCOC1)S(=O)(=O)c1ccc(N)cc1 [FOSAMPRENAVIR] | > 20 | > 20
13 | O=C(O)P(=O)(O)O [FOSCARNET] | > 20 | > 20
14 | Cc1ncccc1NC(=O)c1ccc2c(c1)CC[C@@H]1C[C@@](OP(=O)(O)O)(C(F)(F)F)CC[C@@]21Cc1ccccc1 [FOSDAGROCORAT] | > 20 | > 20
15 | C[C@@H]1O[C@@H]1P(=O)(O)O [FOSFOMYCIN] | > 20 | > 20
16 | O=C(O)CP(=O)(O)O [FOSFONET] | > 20 | > 20
17 | O=C(O)c1ccccc1OP(=O)(O)O [FOSFOSAL] | > 20 | > 20
18 | O=C(O)[C@@H]1C[C@@H](C2CCCCC2)CN1C(=O)CP(=O)(O)CCCCc1ccccc1 [FOSINOPRILAT] | > 20 | > 20
19 | COc1cc(Nc2ncc(F)c(Nc3ccc4c(n3)N(COP(=O)(O)O)C(=O)C(C)(C)O4)n2)cc(OC)c1OC [FOSTAMATINIB] | > 20 | > 20

Row | Compound | IC50 [µM] | IC50 (read-out: pIC50 (converted)) [µM]
20 | CCOP(=O)(Cc1ccc(-c2nc3ccccc3s2)cc1)OCC [FOSTEDIL] | > 20 | > 20
21 | COc1cnc(-n2cnc(C)n2)c2c1c(C(=O)C(=O)N1CCN(C(=O)c3ccccc3)CC1)cn2COP(=O)(O)O [FOSTEMSAVIR] | > 20 | > 20
22 | CCCc1c(OCC(O)COc2ccc3c(=O)cc(C(=O)O)oc3c2CCC)ccc(C(C)=O)c1O (configuration not stated) [FPL-55712] | > 20 | > 20
23 | NC[C@@H]1O[C@H](O[C@H]2[C@@H](O)[C@H](O[C@@H]3[C@@H](O)[C@H](N)C[C@H](N)[C@H]3O[C@H]3O[C@H](CN)[C@@H](O)[C@H](O)[C@H]3N)O[C@@H]2CO)[C@H](N)[C@@H](O)[C@@H]1O [FRAMYCETIN] | > 20 | > 20
24 | O=C(CO)[C@@H](O)[C@H](O)[C@H](O)CO [FRUCTOSE] | > 20 | > 20
25 | Cc1cccc(C)c1NC(=O)c1ccccc1C(=O)O [FTAXILIDE] | > 20 | > 20
26 | N[C@@H](CSCCCO)C(=O)O [FUDOSTEINE] | > 20 | > 20
27 | C[C@]12CC[C@@H]3c4ccc(O)cc4C[C@@H](CCCCCCCCC[S+]([O-])CCCC(F)(F)C(F)(F)F)[C@H]3[C@@H]1CC[C@@H]2O (some centres not stated) [FULVESTRANT] | > 20 | > 20
28 | O=C1OC(CN2CCOCC2)CN1/N=C/c1ccc([N+](=O)[O-])o1 (configuration not stated) [FURALTADONE] | > 20 | > 20
29 | CC(C(=O)O)c1cccc2c(-c3ccccc3)coc12 (configuration not stated) [FURAPROFEN] | > 20 | > 20
30 | O=C(O)c1cc2cc(Cc3cccnc3)ccc2o1 [FUREGRELATE] | > 20 | > 20
31 | NS(=O)(=O)c1cc(C(=O)O)c(NCc2ccco2)cc1Cl [FUROSEMIDE] | > 20 | > 20
32 | CC(=O)O[C@H]1C[C@@]2(C)[C@@H](C[C@@H](O)[C@H]3[C@@]4(C)CC[C@@H](O)[C@@H](C)[C@@H]4CC[C@@]32C)/C1=C(\CCC=C(C)C)C(=O)O [FUSIDIC ACID] | > 20 | > 20
33 | C=CC(=O)N1CC[C@H](n2nc(C#Cc3cc(OC)cc(OC)c3)c3c(N)ncnc32)C1 [FUTIBATINIB] | > 20 | > 20
34 | NCC1(CC(=O)O)CCCCC1 [GABAPENTIN] | > 20 | > 20
35 | COc1ccc(-c2ccc(=N)n(CCCC(=O)O)n2)cc1 [GABAZINE] | > 20 | > 20
36 | CCOC(=O)c1ccc(OC(=O)CCCCCNC(=N)N)cc1 [GABEXATE] | > 20 | > 20
37 | Oc1noc2c1CCNC2 [GABOXADOL] | > 20 | > 20
38 | COc1ccc2c3c1O[C@H]1C[C@@H](O)C=C[C@@]31CCN(C)C2 [GALANTAMINE] | > 20 | > 20

Row | Compound | IC50 [µM] | IC50 (read-out: pIC50 (converted)) [µM]
39 | C[C@]12CC[C@H](O)CC1=CC[C@@H]1[C@@H]2CC[C@]2(C)C(n3cnc4ccccc43)=CC[C@@H]12 [GALETERONE] | > 20 | > 20
40 | O=C(O)c1cc(O)c(O)c(O)c1 [GALLIC ACID] | > 20 | > 20
41 | O=C(O[C@@H]1Cc2c(O)cc(O)cc2O[C@H]1c1cc(O)c(O)c(O)c1)c1cc(O)c(O)c(O)c1 [GALLOCATECHIN GALLATE] | > 20 | > 20
42 | COc1ccc(CCN(C)CCCC(C#N)(c2cc(OC)c(OC)c(OC)c2)C(C)C)cc1OC (configuration not stated) [GALLOPAMIL] | > 20 | > 20
43 | Cc1cccc(-c2nn3c(c2-c2ccnc4ccc(C(N)=O)cc24)CCC3)n1 [GALUNISERTIB] | > 20 | > 20
44 | CC(C)=CCC[C@]1(C)C=Cc2c(O)c3c(c(CC=C(C)C)c2O1)O[C@]12C(=C[C@@H]4C[C@H]1C(C)(C)O[C@@]2(C/C=C(/C)C(=O)O)C4=O)C3=O [GAMBOGIC ACID] | > 20 | > 20
45 | CN(C)CCC(c1ccccc1)C1CCCCC1 (configuration not stated) [GAMFEXINE] | > 20 | > 20
46 | NCC(O)CC(=O)O (stereo not drawn) [GAMMA-AMINO-BETA-HYDROXYBUTYRIC ACID] | > 20 | > 20
47 | OC[C@H]1O[C@@H]2O[C@H]3[C@H](O)[C@@H](O)[C@@H](O[C@H]4[C@H](O)[C@@H](O)[C@@H](O[C@H]5[C@H](O)[C@@H](O)[C@@H](O[C@H]6[C@H](O)[C@@H](O)[C@@H](O[C@H]7[C@H](O)[C@@H](O)[C@@H](O[C@H]8[C@H](O)[C@@H](O)[C@@H](O[C@H]9[C@H](O)[C@@H](O)[C@@H](O[C@H]1[C@H](O)[C@H]2O)O[C@@H]9CO)O[C@@H]8CO)O[C@@H]7CO)O[C@@H]6CO)O[C@@H]5CO)O[C@@H]4CO)O[C@@H]3CO [GAMMA-CYCLODEXTRIN] | > 20 | > 20
48 | Nc1nc2c(ncn2COC(CO)CO)c(=O)[nH]1 [GANCICLOVIR] | > 20 | > 20
49 | CC(C)c1cc(-c2n[nH]c(=O)n2-c2ccc3c(ccn3C)c2)c(O)cc1O [GANETESPIB] | > 20 | > 20
50 | COc1c(N2CCNC(C)C2)c(F)cc2c(=O)c(C(=O)O)cn(C3CC3)c12 (configuration not stated) [GATIFLOXACIN] | > 20 | > 20
51 | CC(=O)O[C@@H]1C[C@H]2C(C)(C)C(=O)C=C[C@]2(C)[C@H]2CC[C@@]3(C)[C@H](c4ccoc4)OC(=O)[C@H]4O[C@]43[C@@]21C [GEDUNIN] | > 20 | > 20
52 | C=C[C@]12CN(C)[C@@H]3[C@H]4CO[C@H](C[C@H]41)[C@]1(C(=O)Nc4ccccc41)[C@@H]32 [GELSEMINE] | > 20 | > 20
53 | CC(C)(CO)CCCCCCC(C)(C)CO [GEMCADIOL] | > 20 | > 20
54 | Nc1ccn([C@@H]2O[C@H](CO)[C@@H](O)C2(F)F)c(=O)n1 [GEMCITABINE] | > 20 | > 20
55 | Cc1ccc(C)c(OCCCC(C)(C)C(=O)O)c1 [GEMFIBROZIL] | > 20 | > 20
56 | O=c1c(-c2ccc(O)cc2)coc2cc(O)cc(O)c12 [GENISTEIN] | > 20 | > 20
